For data set [1], the system named is mice. The data set can be described thus: Open field test (anxiety-related behavior). Conditions: 10 mg·kg−1 i.p. 30 min before, 10 min exploration. Type of data set: in vivo. The method, then:
Anxiety-related behavior was assessed using the open field test (OF; Mouse Open Field Arena ENV-510; Med Associates Inc., Fairfax, VT, USA). […] The two regions were defined by grid lines that divided each box into the center and periphery, with each of the four lines being 11 cm from each wall.

Data set [2] has as its system mice. The experiment in a line: Gastro-intestinal transit (charcoal marker). Type of data set: in vivo. To be noted: JM-00266 10 mg·kg−1 10 min before anandamide 10 mg·kg−1. As to the method:
Short-term effects of JM-00266 on gastro-intestinal transit were tested as an indicator of peripheral CB1R activity. Transit was measured by administering a non-absorbed marker (10% charcoal suspension in 5% gum arabic) as previously described.

The test system of data set [3] is CB1R−/− mice. The data set can be described thus: Oral glucose tolerance test (OGTT) in CB1R−/− mice. Type of data set: in vivo. To be noted: 10 mg·kg−1 i.p. 10 min before glucose gavage. As to the method: (§1) To test acute effects of JM-00266 on glucose metabolism and their specificity to CB1R, C57BL/6 wild type mice and CB1R^−/− mice fasted for 6 h were subjected to an oral glucose tolerance test (OGTT, 2 g·kg^−1 glucose) and to an insulin tolerance test (ITT) using 0.5 UI·kg^−1 insulin (Actrapid, Novo Nordisk, La Défense, France) 10 min after i.p. injection of JM-00266 (10 mg·kg^−1) or vehicle. For both tests, glycemia was monitored during 120 min post-injection with a My Life Pura TM glucose meter (Ypsomed, Paris, France) directly on a blood drop from the tail. Corresponding AUC0–2 h were calculated.

Data set [4] relates to C57BL/6 wild type mice. The experiment in a line: Insulin tolerance test (ITT). Type of data set: in vivo. To be noted: 10 mg·kg−1 i.p. 10 min before insulin 0.5 UI·kg−1. The method, then: as §1
For data set [5], the system named is mice. The experiment in a line: Food intake in 24-h food-deprived mice. It counts as in vivo. To be noted: ACEA 1 mg/kg i.p., Rimonabant 10 mg·kg−1, JM-00266 20 mg·kg−1. As to the method:
For food intake experiments, mice were food-deprived for 24 h before being submitted to an i.p. injection of ACEA (1 mg·kg^−1). […] Cumulative food intake was measured every hour over a period of 3 h from refeeding.

Data set [6] relates to mice. The experiment in a line: In vivo lipolysis: plasma glycerol appearance after BRL37344. To be noted: JM-00266 i.p. 4 h before BRL37344 5 mg·kg−1 i.p. As to the method: In vivo experiments. Overnight-fasted mice were injected i.p. with JM-00266 (mg·kg^−1) or vehicle. Four hours later, mice were injected i.p. with the specific ß3-adrenergic receptor agonist, BRL37344 (5 mg·kg^−1). Blood samples (~25 µL) were collected from tails in tubes containing EDTA (Sarstedt, Nümbrecht, Germany) at times 0, 15, 30, 45 and 60 min after BRL37344 injection to measure plasma glycerol appearance using a colorimetric assay (glycerol FS, DiaSys, Condom, France).

The subject of data set [7] is C57BL/6 wild type mice. The data set can be described thus: Oral glucose tolerance test (OGTT) in wild type mice. It counts as in vivo. The method, then:
as §1

Data set [8] can be described thus: Plasma kinetic profile after i.p., oral or intravenous administration. It counts as in vivo, mice. Conditions: for Time of peak drug plasma concentration / Maximal drug plasma concentration: mice; for Maximal drug plasma concentration: n = 4. As to the method: At 1, 2, 4 and 8 h post-administration, animals were killed by cervical dislocation and blood was collected from the vena cava into tubes containing heparin and centrifuged immediately at 6500× g for 10 min at 4 °C. For determination of tissue distribution, brain, liver and adipose tissue were collected 4 h post-gavage. Plasma and tissue samples were directly extracted for further analysis by Liquid chromatography coupled to tandem mass spectrometry (LC-MS/MS).
Tissues were homogenized with a mini-bead beater (BioSpec Products, Bartlesville, OK) in 10 volumes of acetonitrile containing 15 ng of internal standard, JM-00252. Blood samples were centrifuged at 6500× g during 10 min 4 °C and 5 µL of plasma were diluted in 10 volumes of acetonitrile containing 15 ng of internal standard. Then, each homogenate of tissue or plasma was centrifuged for 10 min at 6500× g and the supernatant was recovered and carefully transferred to new glass tubes. Finally, the extract was injected into a 1200 LC system coupled to a 6460-QqQ MS/MS system equipped with a JetStream ESI source (Agilent technologies, Les Ulis, France). Separation was achieved on a Poroshell 120 EC-C8 2.1 mm × 100 mm, 2.7 µm column (Agilent technologies) at a flow rate of 0.4 mL.min^−1, 55 °C, with a linear gradient of (solvent A) water containing 1 mM ammonium formate and 0.2% formic acid and (solvent B) methanol containing 1 mM ammonium formate and 0.2% formic acid and as follows: 50% B for 1 min, up to 100% B in 4 min, and then maintained at 100% for 2 min. The acquisition was performed in positive Single Reaction Monitoring (SRM) mode (source temperature: 300 °C, nebulizer gas flow rate was 10 L·min^−1, 15 psi, sheath gas flow 7 L·min^−1, temperature 225 °C, capillary 4000 V, nozzle 1500 V). […] Results are expressed as ng·g^−1 for tissues and ng·mL^−1 for plasma.

Turning to `CSc1ccc(C2C(N3C(=O)c4ccccc4C3=O)C(=O)N2c2ccc(SC)cc2)cc1` (stereo not drawn) [JM-00266, 1,4-di-(4-méthylthiophenyl)-3-phthaloylazetidin-2-one], the “Open field: locomotor activity (total ambulatory distance)” value in data set [1] is recorded as “did not alter”. Further, in data set [1], the “Open field: number of center entries” value was “did not alter”. Besides, in data set [1], the “Open field: time spent in the center” value was “did not alter”. Moreover, in data set [2], the “Effect on anandamide-induced slowing down of gastro-intestinal transit” value is “abrogated”. Further, the entries for the “Glucose tolerance (OGTT) vs vehicle” value in data set [3] and in data set [7] (10 mg·kg−1 i.p. 10 min before glucose gavage 2 g·kg−1) were “failed to improve glucose tolerance” and “improved glucose tolerance”, respectively. Besides, the “Glycemia during ITT (insulin sensitivity)” value in data set [4] was “lower glycemia over time compared to vehicle treated mice”. In addition, the “Cumulative 3-h food intake, co-administration with ACEA” value in data set [5] is “not observed”. Further, the “ß-adrenergic-induced glycerol production (plasma glycerol) vs vehicle” value in data set [6] was “increased”. Moreover, the “Plasma insulin levels during OGTT” value in data set [7] (10 mg·kg−1 i.p.) was “lower than vehicle”. The “Plasma clearance compared with Rimonabant” value in data set [8] (intravenous administration) is recorded as “slightly higher clearance”. For the same compound, the “Time of peak drug plasma concentration” value in data set [8] (i.p. 10 mg·kg−1, DMSO/Tween solution) came out at 30 min; in data set [8] (oral 10 mg·kg−1, dissolved in oil) it was 60 min. The “Maximal drug plasma concentration” value in data set [8] (i.p. 10 mg·kg−1, mean ± SEM) was found to be 378 ± 27 ng/mL; in data set [8] (oral 10 mg·kg−1, mean ± SEM), 203 ± 18 ng/mL.

The values above are taken from PMC8949893, “Chemical Synthesis, Pharmacokinetic Properties and Biological Effects of JM-00266, a Putative Non-Brain Penetrant Cannabinoid Receptor 1 Inverse Agonist” (International Journal of Molecular Sciences, 2022).
